Measurements as given in patent publication US7981926B2, “Fluorotaxoids” (Research Foundation of State University of New York, priority 2005, dated 2011).
pIC50: −log10 of the molar value. Where two headings read alike, the source gives them in different places.

Columns and labels:
[1] = tested on: MCF7-R (mammary carcinoma cells 250-fold resistant to paclitaxel); experiment: Tumor growth inhibitory activity (cytotoxicity), SRB method of Skehan et al, MCF7-R; assay type: cell-based, human; settings: for pIC50: read-out: IC50 MCF7-R (breast); for R/S (resistance factor): ratio of cytotoxicity against drug-resistant MCF7-R (R) to drug-sensitive MCF7 (S)
Excerpt: (§1) The results were obtained according to the methods of Skehan et al (See Skehan et al., J. Nat. Cancer Inst., 82, 1107 (1990)), as more fully described in the Examples. The resistance factor (R/S) shown in the table is a measure of the degree of resistance of a cell line against a taxoid compound. The resistance factor is a ratio of the cytoxicity of a taxoid compound against a drug-resistant cell line (R) as compared to its cytoxicity against a drug-sensitive cell line (S).
(§2) In the tables, lower numbers indicate higher potency (or greater activity). Paclitaxel was used as the standard for comparison. The data represent the mean values of at least three separate experiments.
(§3) Assessment of cell growth inhibition was determined according to the methods of Skehan et al (See Skehan et al., J. Nat. Cancer Inst., 82, 1107 (1990)). Briefly, cells were plated between 400 and 1200 cells/well in 96 well plates and incubated at 37° C. for 15-18 h prior to drug addition to allow attachment of cells. Compounds tested were solubilized in 100% DMSO and further diluted in RPMI-1640 containing 10 mM HEPES. Each cell line was treated with 10 concentrations of compounds (5 log range). After a 72 h incubation, 100 μL of ice-cold 50% TCA was added to each well and incubated for 1 h at 4° C. Plates were then washed 5 times with tap water to remove TCA, low-molecular-weight metabolites and serum proteins. Sulforhodamine B (SRB) (0.4%, 50 μL) was added to each well. Following a 5 minute incubation at room temperature, plates were rinsed 5 times with 0.1% acetic acid and air dried. Bound dye was solubilized with 10 mM Tris Base (pH 10.5) for 5 min on a gyratory shaker. Optical density was measured at 570 nm.
(§4) Data were fit with the Sigmoid-Emax concentration-effect model with non-linear regression, weighted by the reciprocal of the square of the predicted response (see Holford, N. H. G.; Scheiner, L. B., “Understanding the dose-effect relationship: Clinical applications of pharmaco-kinetic-pharmacodynamic models,” Clin. Pharmacokin., 6, 429-453 (1981)). The fitting software was developed by the Roswell Park Cancer Institute with Microsoft FORTRAN, and uses the Marquardt algorithm (see Marquardt, D. W., “An algorithm for least squares estimation of nonlinear parameters,” J. Soc. Ind. Appl. Math., 11, 431-441 (1963)) as adopted by Nash for the non-linear regression (see Nash, J. C., “Compact numerical method for computers: Linear algebra and function minimization,” John Wiley & Sons, New York, 1979).

MCF7 (mammary carcinoma) = experiment: Tumor growth inhibitory activity (cytotoxicity), SRB method of Skehan et al, MCF7; assay type: cell-based, human; settings: read-out: IC50 MCF7 (breast)
Excerpt: as §1, §2, §3, §4

[2] = Homo sapiens, MCF7R, drug-resistant cell line, 72 h drug exposure, SRB, mean of at least three separate experiments
[3] = Homo sapiens, MCF7, 72 h drug exposure, SRB, mean of at least three separate experiments
[4] = drug-resistant cell line, 72 h drug exposure, SRB, mean of at least three separate experiments
[5] = 72 h drug exposure, SRB, mean of at least three separate experiments

| Structure (SMILES) | pIC50 [1, 2] | R/S (resistance factor) [1] | pIC50 (MCF7 (mammary carcinoma); [3]) | pIC50 [1, 4] | pIC50 (MCF7 (mammary carcinoma); [5]) | pIC50 ([1]; Homo sapiens, MCF7R, 72 h) | pIC50 (MCF7 (mammary carcinoma); Homo sapiens, MCF7, 72 h) |
| --- | --- | --- | --- | --- | --- | --- | --- |
| CC(=O)O[C@H]1C(=O)[C@@]2(C)[C@H]([C@H](OC(=O)c3ccccc3)[C@]3(O)C[C@H](OC(=O)[C@H](O)[C@@H](NC(=O)c4ccccc4)c4ccccc4)C(C)=C1C3(C)C)[C@]1(OC(C)=O)CO[C@@H]1C[C@@H]2O [Paclitaxel, paclitaxel, reference compound] | 6.52 | 250 | 8.92 |  |  |  |  |
| COc1cccc(C(=O)O[C@H]2C3[C@](C)(C(=O)[C@H](OC(C)=O)C4=C(C)[C@@H](OC(=O)[C@H](O)[C@H](C=C(F)F)NC(=O)OC(C)(C)C)C[C@]2(O)C4(C)C)[C@@H](O)C[C@H]2OC[C@@]32OC(C)=O)c1 (stereo partly drawn) [SB-T-12851-1, 3′-Dephenyl-3′-(2,2-difluorovinyl)-2-debenzoyl-2-(3-methoxybenzoyl)-10-acetyldocetaxel] | 8.82 | 6.0 | 9.60 |  |  |  |  |
| CC(=O)O[C@H]1C(=O)[C@@]2(C)C([C@H](OC(=O)c3cccc(F)c3)[C@]3(O)C[C@H](OC(=O)[C@H](O)[C@H](C=C(F)F)NC(=O)OC(C)(C)C)C(C)=C1C3(C)C)[C@]1(OC(C)=O)CO[C@@H]1C[C@@H]2O (stereo partly drawn) [SB-T-12851-2, 3′-Dephenyl-3′-(2,2-difluorovinyl)-2-debenzoyl-2-(3-fluorobenzoyl)-10-acetyldocetaxel] | 8.82 | 12 | 9.89 |  |  |  |  |
| CC(=O)O[C@H]1C(=O)[C@@]2(C)C([C@H](OC(=O)c3cccc(N=[N+]=[N-])c3)[C@]3(O)C[C@H](OC(=O)[C@H](O)[C@H](C=C(F)F)NC(=O)OC(C)(C)C)C(C)=C1C3(C)C)[C@]1(OC(C)=O)CO[C@@H]1C[C@@H]2O (stereo partly drawn) [SB-T-12851-3, 3′-Dephenyl-3′-(2,2-difluorovinyl)-2-debenzoyl-2-(3-azidobenzoyl)-10-acetyldocetaxel] | 9.47 | 3.7 | 10.04 |  |  |  |  |
| CC(=O)O[C@H]1C(=O)[C@@]2(C)C([C@H](OC(=O)c3cccc(Cl)c3)[C@]3(O)C[C@H](OC(=O)[C@H](O)[C@H](C=C(F)F)NC(=O)OC(C)(C)C)C(C)=C1C3(C)C)[C@]1(OC(C)=O)CO[C@@H]1C[C@@H]2O (stereo partly drawn) [SB-T-12851-4, 3′-Dephenyl-3′-(2,2-difluorovinyl)-2-debenzoyl-2-(3-chlorobenzoyl)-10-acetyldocetaxel] | 9.15 | 5.4 | 9.89 |  |  |  |  |
| CC(=O)O[C@@]12CO[C@@H]1C[C@H](O)[C@@]1(C)C(=O)[C@H](OC(=O)C3CC3)C3=C(C)[C@@H](OC(=O)[C@H](O)[C@H](C=C(F)F)NC(=O)OC(C)(C)C)C[C@@](O)([C@@H](OC(=O)c4ccccc4)[C@H]21)C3(C)C [SB-T-12852, 3′-dephenyl-3′-(2,2-difluorovinyl)-10-cyclopropanecarbonyl-docetaxel] |  | 53 |  | 8.22 | 9.92 |  |  |
| COc1cccc(C(=O)O[C@H]2[C@@H]3[C@]4(OC(C)=O)CO[C@@H]4C[C@H](O)[C@@]3(C)C(=O)[C@H](OC(=O)C3CC3)C3=C(C)[C@@H](OC(=O)[C@H](O)[C@H](C=C(F)F)NC(=O)OC(C)(C)C)C[C@]2(O)C3(C)C)c1 [SB-T-12852-1, 3′-Dephenyl-3′-(2,2-difluorovinyl)-2-debenzoyl-2-(3-methoxybenzoyl)-10-cyclopropanecarbonyldocetaxel] |  | 5.2 |  | 9.32 | 10.04 |  |  |
| CC(=O)OC12COC1CC(O)C1(C)C(=O)C(OC(=O)C3CC3)C3=C(C)C(OC(=O)C(O)C(C=C(F)F)NC(=O)OC(C)(C)C)CC(O)(C(OC(=O)c4cccc(F)c4)C21)C3(C)C (stereo not drawn) [SB-T-12852-2, 3′-Dephenyl-3′-(2,2-difluorovinyl)-2-debenzoyl-2-(3-fluorobenzoyl)-10-cyclopropanecarbonyldocetaxel] |  | 23 |  | 8.76 | 10.12 |  |  |
| CC(=O)O[C@@]12CO[C@@H]1C[C@H](O)[C@@]1(C)C(=O)[C@H](OC(=O)C3CC3)C3=C(C)[C@@H](OC(=O)[C@H](O)[C@H](C=C(F)F)NC(=O)OC(C)(C)C)C[C@@](O)([C@@H](OC(=O)c4cccc(N=[N+]=[N-])c4)[C@H]21)C3(C)C [SB-T-12852-3, 3′-Dephenyl-3′-(2,2-difluorovinyl)-2-debenzoyl-2-(3-azidobenzoyl)-10-cyclopropanecarbonyldocetaxel] |  | 4.9 |  | 9.35 | 10.04 |  |  |
| CC(=O)OC12COC1CC(O)C1(C)C(=O)C(OC(=O)C3CC3)C3=C(C)C(OC(=O)C(O)C(C=C(F)F)NC(=O)OC(C)(C)C)CC(O)(C(OC(=O)c4cccc(Cl)c4)C21)C3(C)C (stereo not drawn) [SB-T-12852-4, 3′-Dephenyl-3′-(2,2-difluorovinyl)-2-debenzoyl-2-(3-chlorobenzoyl)-10-cyclopropanecarbonyldocetaxel] |  | 4.2 |  | 9.30 | 9.92 |  |  |
| CCC(=O)O[C@H]1C(=O)[C@@]2(C)C([C@H](OC(=O)c3cccc(OC)c3)[C@]3(O)C[C@H](OC(=O)[C@H](O)[C@H](C=C(F)F)NC(=O)OC(C)(C)C)C(C)=C1C3(C)C)[C@]1(OC(C)=O)CO[C@@H]1C[C@@H]2O (stereo partly drawn) [SB-T-12853-1, 3′-Dephenyl-3′-(2,2-difluorovinyl)-2-debenzoyl-2-(3-methoxybenzoyl)-10-propanoyldocetaxel] | 9.24 | 1.7 | 9.47 |  |  |  |  |
| CCC(=O)O[C@H]1C(=O)[C@@]2(C)C([C@H](OC(=O)c3cccc(F)c3)[C@]3(O)C[C@H](OC(=O)[C@H](O)[C@H](C=C(F)F)NC(=O)OC(C)(C)C)C(C)=C1C3(C)C)[C@]1(OC(C)=O)CO[C@@H]1C[C@@H]2O (stereo partly drawn) [SB-T-12853-2, 3′-Dephenyl-3′-(2,2-difluorovinyl)-2-debenzoyl-2-(3-fluorobenzoyl)-10-propanoyldocetaxel] | 8.60 | 11 | 9.64 |  |  |  |  |
| CCC(=O)O[C@H]1C(=O)[C@@]2(C)C([C@H](OC(=O)c3cccc(N=[N+]=[N-])c3)[C@]3(O)C[C@H](OC(=O)[C@H](O)[C@H](C=C(F)F)NC(=O)OC(C)(C)C)C(C)=C1C3(C)C)[C@]1(OC(C)=O)CO[C@@H]1C[C@@H]2O (stereo partly drawn) [SB-T-12853-3, 3′-Dephenyl-3′-(2,2-difluorovinyl)-2-debenzoyl-2-(3-azidobenzoyl)-10-propanoyldocetaxel] | 9.42 | 2.9 | 9.89 |  |  |  |  |
| CCC(=O)O[C@H]1C(=O)[C@@]2(C)C([C@H](OC(=O)c3cccc(Cl)c3)[C@]3(O)C[C@H](OC(=O)[C@H](O)[C@H](C=C(F)F)NC(=O)OC(C)(C)C)C(C)=C1C3(C)C)[C@]1(OC(C)=O)CO[C@@H]1C[C@@H]2O (stereo partly drawn) [SB-T-12853-4, 3′-Dephenyl-3′-(2,2-difluorovinyl)-2-debenzoyl-2-(3-chlorobenzoyl)-10-propanoyldocetaxel] | 9.35 | 3.5 | 9.89 |  |  |  |  |
| COc1cccc(C(=O)O[C@H]2C3[C@](C)(C(=O)[C@H](OC(=O)N(C)C)C4=C(C)[C@@H](OC(=O)[C@H](O)[C@H](C=C(F)F)NC(=O)OC(C)(C)C)C[C@]2(O)C4(C)C)[C@@H](O)C[C@H]2OC[C@@]32OC(C)=O)c1 (stereo partly drawn) [SB-T-12854-1, 3′-dephenyl-3′-(2,2-difluorovinyl)-2-debenzoyl-2-(3-methoxybenzoyl)-10-dimethylcarbamate-docetaxel] |  | 8.7 |  |  |  | 9.02 | 9.96 |
